Experimental data taken from patent publication US20250154152A1, “INHIBITORS OF NAEGLERIA FOWLERI” (Wisconsin Alumni Research Foundation, priority 2023, published 2025).

System: N. fowleri strain Nf69 (ATCC 30215) trophozoites
Assay: Determination of EC50 values against Naegleria fowleri (growth inhibition, CellTiter Glo, 48 h)
Assay type: cell-based
Settings: ATCC30215, N. fowleri Nf69 trophozoites, 48 h culture, 37° C., CellTiter Glo luminescence, read-out: EC50 uM against N. fowleri
Summary of the method: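 Axenic Nf69 trophozoites in Nelson's complete medium with 10% FBS exposed to compound, initially 20–0.375 μM, for 48 h at 37 °C, 5% CO2. Viability read by CellTiter-Glo luminescence; % growth inhibition versus controls, triplicate averages fitted for EC50, with lower ranges used for very potent compounds.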

Row | SMILES | EC50
1 | CN1CCC[C@@H]2c3nc4cccc(Cl)c4c(=O)n3CC[C@H]21 (racemic) [trans-5c, (±)-(4aR,13bS)-9-chloro-4-methyl-1,2,3,4,4a,5,6,13b-octahydro-8H-[1,6]naphthyridino[5,6-b]quinazolin-8-one] | > 10 µM
2 | COc1cc2nc3n(c(=O)c2cc1Cl)CC[C@@H]1[C@@H]3CCCN1CC1COC1 (racemic) [trans-7dd, (±)-(4aR,13bS)-10-chloro-11-methoxy-4-(oxetan-3-ylmethyl)-1,2,3,4,4a,5,6,13b-octahydro-8H-[1,6]naphthyridino[5,6-b]quinazolin-8-one] | 0.0001 to 0.1 µM
3 | CN1CCC[C@H]2c3nc4ccccc4c(=O)n3CC[C@H]21 (racemic) [cis-5a, (±)-(4aR,13bR)-4-methyl-1,2,3,4,4a,5,6,13b-octahydro-8H-[1,6]naphthyridino[5,6-b]quinazolin-8-one] | > 10 µM
4 | CC(C)CN1CCC[C@@H](c2nc3cc(Cl)c(Cl)cc3c(=O)n2C)C1 [Compound R-14g, (R)-6,7-dichloro-2-(1-isobutylpiperidin-3-yl)-3-methylquinazolin-4(3H)-one] | > 10 µM
5 | COc1cccc2c(=O)n3c(nc12)[C@H]1CCCN(C)[C@@H]1CC3 (racemic) [trans-5u, (±)-(4aR,13bS)-12-methoxy-4-methyl-1,2,3,4,4a,5,6,13b-octahydro-8H-[1,6]naphthyridino[5,6-b]quinazolin-8-one] | > 10 µM
6 | CN1CCO[C@H]2c3nc4ccc(C(F)(F)F)cc4c(=O)n3CC[C@H]21 (racemic) [cis-5x, (±)-(4aR,13bR)-4-methyl-10-(trifluoromethyl)-3,4,4a,5,6,13b-hexahydro-[1,4]oxazino[2′,3′:3,4]pyrido[2,1-b]quinazolin-8(2H)-one] | > 10 µM
7 | Cn1c([C@H]2CCCN(CC3COC3)C2)nc2cc(Cl)c(Cl)cc2c1=O [Compound S-14e, (S)-6,7-dichloro-3-methyl-2-(1-(oxetan-3-ylmethyl)piperidin-3-yl)quinazolin-4(3H)-one] | > 10 µM
8 | CN1CCC[C@@H]2c3nc4cc(Cl)c(Cl)cc4c(=O)n3CC[C@H]21 [trans-10e-ent-1, (4aR,13bS)-10,11-dichloro-4-methyl-1,2,3,4,4a,5,6,13b-octahydro-8H-[1,6]naphthyridino[5,6-b]quinazolin-8-one] | 0.0001 to 0.1 µM
9 | CN1CCC[C@@H]2c3nc4cc(Cl)c(Cl)cc4c(=O)n3CC[C@H]21 (racemic) [trans-5q, (±)-(4aR,13bS)-10,11-dichloro-4-methyl-1,2,3,4,4a,5,6,13b-octahydro-8H-[1,6]naphthyridino[5,6-b]quinazolin-8-one] | 0.1 to 1 µM
10 | Cn1c([C@@H]2CCCN(CC3COC3)C2)nc2cnc(Cl)cc2c1=O [Compound R-14n, (R)-6-chloro-3-methyl-2-(1-(oxetan-3-ylmethyl)piperidin-3-yl)pyrido[3,4-d]pyrimidin-4(3H)-one] | > 10 µM
11 | Cn1c([C@@H]2CCCN(CC3COC3)C2)nc2cc(F)ccc2c1=O [Compound R-14r, (R)-7-fluoro-3-methyl-2-(1-(oxetan-3-ylmethyl)piperidin-3-yl)quinazolin-4(3H)-one] | > 10 µM
12 | COc1ccc2c(=O)n3c(nc2c1)[C@H]1CCCN(C)[C@@H]1CC3 (racemic) [trans-50, (±)-(4aR,13bS)-11-methoxy-4-methyl-1,2,3,4,4a,5,6,13b-octahydro-8H-[1,6]naphthyridino[5,6-b]quinazolin-8-one] | 1 to 10 µM
13 | COc1ccc2nc3n(c(=O)c2c1)CC[C@@H]1[C@H]3CCCN1C (racemic) [cis-5g, (±)-(4aR,13bR)-10-methoxy-4-methyl-1,2,3,4,4a,5,6,13b-octahydro-8H-[1,6]naphthyridino[5,6-b]quinazolin-8-one] | > 10 µM
14 | CN1CCC[C@H]2c3nc4cc(Br)ccc4c(=O)n3CC[C@H]21 (racemic) [cis-5l, (±)-(4aR,13bR)-11-bromo-4-methyl-1,2,3,4,4a,5,6,13b-octahydro-8H-[1,6]naphthyridino[5,6-b]quinazolin-8-one] | 1 to 10 µM
15 | CCN1CCC[C@@H]2c3nc4ccccc4c(=O)n3CC[C@H]21 (racemic) [trans-5z, (±)-(4aR,13bS)-4-ethyl-1,2,3,4,4a,5,6,13b-octahydro-8H-[1,6]naphthyridino[5,6-b]quinazolin-8-one] | > 10 µM
16 | Cn1c([C@@H]2CCCN(CC3COC3)C2)nc2ccc(Cl)cc2c1=O [Compound R-14p, (R)-6-chloro-3-methyl-2-(1-(oxetan-3-ylmethyl)piperidin-3-yl)quinazolin-4(3H)-one] | > 10 µM
17 | CN1CCC[C@H]2c3nc4cc(-c5ccccc5)c(Cl)cc4c(=O)n3CC[C@H]21 (racemic) [cis-9b, (±)-(4aR,13bR)-10-chloro-4-methyl-11-phenyl-1,2,3,4,4a,5,6,13b-octahydro-8H-[1,6]naphthyridino[5,6-b]quinazolin-8-one] | 1 to 10 µM
18 | COc1cc2nc3n(c(=O)c2cc1Cl)CC[C@H]1[C@H]3CCCN1CC(C)C (single isomer, unassigned) [trans-10h-ent-2] | 0.0001 to 0.1 µM
19 | O=c1c2cc(Cl)c(Cl)cc2nc2n1CC[C@@H]1[C@@H]2CCCN1CC1CCOCC1 (racemic) [trans-7b, (±)-(4aR,13bS)-10,11-dichloro-4-((tetrahydro-2H-pyran-4-yl)methyl)-1,2,3,4,4a,5,6,13b-octahydro-8H-[1,6]naphthyridino[5,6-b]quinazolin-8-one] | 0.0001 to 0.1 µM
20 | O=c1c2cc(Cl)c(Cl)cc2nc([C@@H]2CCCN(CC3COC3)C2)n1CCN1CCOCC1 [Compound R-14m, (R)-6,7-dichloro-3-(2-morpholinoethyl)-2-(1-(oxetan-3-ylmethyl)piperidin-3-yl)quinazolin-4(3H)-one] | > 10 µM
21 | Cc1cccc2nc3n(c(=O)c12)CC[C@@H]1[C@H]3CCCN1C (racemic) [cis-5b, (±)-(4aR,13bR)-4,9-dimethyl-1,2,3,4,4a,5,6,13b-octahydro-8H-[1,6]naphthyridino[5,6-b]quinazolin-8-one] | > 10 µM
